Laboratory results from patent EP0726257A1, “1-(Hetero)Arylvinyl-5H-2,3-benzodiazepine derivatives useful for the treatment of central nervous system disorders, and benzopyrylium intermediates for their preparation” (EGIS GYOGYSZERGYAR RT., priority 1995, dated 1996).

Experiments:
[1] = biological target: homophthalazine binding site; test: Displacement of 3H-girisopam from the homophthalazine binding site in rat brain striatal membrane preparation; settings: displacing 5 nM 3H-girisopam
Experimental: Ki values were calculated according to the following equation: Ki = IC50 :(1 +([L])/(KD)), [formula] wherein KD is the dissociation constant of the labelled ligand-receptor complex, [L] is the concentration of the labelled ligand and IC50 is the half maximal inhibitory concentration of the test compound.

[2] = system: spontaneous motor activity (SMA) in mice; test: Behavioural effects according to Irwin (decrease in spontaneous motor activity); format: in vivo; design: key: ++ strong; + moderate; +- slight decrease in spon-taneous motor activity [SMA]
Experimental: (§1) The behavioural effects of 1-[2'-(substituted) vinyl]-5H-2,3-benzodiazepine derivatives according to the invention and of reference substances were measured according to the method of Irwin (Psychopharmacology, 13, 222 [1968]). The results and the acute toxicity data (dead/treated animals, shown in brackets) can be seen in the following Table II
(§2) From the above Table II it can be taken that the 1-[2'-(substituted) vinyl]-5H-2,3-benzodiazepine derivatives according to the invention considerably decrease the spontaneous motor activity (SMA) in mice after intraperitoneal or oral administration.

mice = test: Acute toxicity (dead/treated animals) in the Irwin test; format: in vivo
Experimental: as §1, §2

[3] = system: spontaneous motor activity of mice; test: Inhibition of spontaneous motor activity according to Borsy et al.; format: in vivo; settings: Mus musculus, po, 0.5 h; p.o., mice, interruptions of infrared beam within 30 minutes; read-out: ID50 (the source's name)
Experimental: The potential antipsychotic activity of 1-[2'-(substituted) vinyl]-5H-2,3-benzodiazepine derivatives according to the invention and of reference substances was tested according to the method of Puech et al. (Psychopharmacology, 75, 84, [1981] by measuring their inhibiting effect on the "climbing" reaction induced by 5,6,6a,7-tetra-(hydro)-6-(methyl)-4H-dibenzo[de,g]quinoline-10,11-di-(ol){apomorphine}. The results have been expressed as ED50 values. Since the inhibition of the spontaneous motor activity (SMA) is an important characteristic of the antipsychotic drugs, the ED50 values of a number of compounds were determined according to the method of Borsy et al. (Arch. Int. Pharmacodyn., 124, 1, 196).
The effect of the 1-[2'-(substituted) vinyl]-5H-2,3-benzodiazepine derivatives according to the invention on the spontaneous motor activity was tested according to the method of Borsy et al. Groups consisting of 3 mice were treated orally with different doses of the compounds to be tested. Then the animals were placed into a 10-channel Dews system equipment, wherein the number of interruptions of infrared beam within 30 minutes was counted. […]

rats = test: Elevated plus-maze test (Pellow), anxiolytic activity; format: in vivo; settings: Rattus norvegicus, po, 1 h; p.o., elevated plus maze, Sprague Dawley rats, 60 minutes pretreatment, significant increase of time spent on open arms; read-out: Minimum effective dose
Description: The anxiolytic activity was studied in rats according to the "lick-conflict" test elaborated by Vogel et al. (Psychopharmacology, 21, 1, [1971] and the elevated plus-maze test described by Pellow (Pellow, J.: Neurosci. Meth. 14, 149, [1985]). The antiaggressive effect was investigated in mice using the "fighting behaviour" method of Tedeschi (J. Pharm. Exp. Ther., 125, 28, [1959]). The minimal effective dose (MED) values and the ED50 values obtained are shown in the following Table V.
The anxiolytic activity of these compounds was investigated in the elevated plus maze test. Male rats belonging to the Sprague Dawley strain and weighing 220 to 260 g were used as test animals. The test was carried out with the aid of a wooden plus-shaped maze elevated to a height of 50 cm and containing two enclosed and two open arms (50 cm long and 15 cm wide). After 60 minutes pretreatment the animals were placed into the maze and observed for 5 minutes. The drug effect was expressed as percent increase of the time spent on the open arms and number of open arm entries. The minimum effective dose (MED) which caused a significant increase of the time spent on the open arms was calculated for every substance [Pelow, S., Chopin, P., File, S.E., Briley, M.: J. Neurosci. Methods 14, 149 to 167 [1985]).

Catalepsy in mice = test: Cataleptic effect in mice (Schlichtegroll); format: in vivo; settings: p.o.
Experimental: (§3) The cataleptic effect of the compounds was measured both in mice (Schlichtegroll: Arzneim. Forsch., 8, 489, [1958]) and in rats (Morpurgo: Arch. Int. Pharmacodyn., 137, 87, [1962]).

Catalepsy in rats = test: Cataleptic effect in rats (Morpurgo); format: in vivo; settings: p.o.
Experimental: as §3

Ki [1] [nM] | Structure (SMILES) | Behaviour ([2]; 300 mg/kg i.p.) | Behaviour ([2]; 1000 mg/kg p.o.) | acute toxicity (dead/treated animals) (mice; 300 mg/kg i.p.) | acute toxicity (dead/treated animals) (mice; 1000 mg/kg p.o.) | further results
– | CC1=NN=C(C=Cc2ccc(F)cc2)c2c(ccc3c2OCO3)C1 [Example 91, 1-[4'-(Fluoro)-styryl]-4-[methyl]-8,9-[methylenedioxy]-5H-2,3-benzodiazepine] | – | – | – | – | ED50 [3]: > 100 mg/kg
16 | COc1cc(OC)c(OC)cc1C=CC1=NN=C(C)Cc2cc(OC)c(OC)cc21 [Example 59] | – | – | – | – | –
– | CCC1C(C)=NN=C(C=Cc2ccc(N(C)C)cc2)c2cc(OC)c(OC)cc21 (stereo not shown) [Example 37] | + + | + + | 0/5 | 4/5 | –
– | CC1=NN=C(C=Cc2ccc(F)cc2)c2cc3c(cc2C1)OCO3 [Example 86, 1-[4'-(Fluoro)-styryl]-4-[methyl]-7,8-[methylenedioxy]-5H-2,3-benzodiazepine] | – | – | – | – | ED50 [3]: > 100 mg/kg; minimal effective dose (rats): 0.003 mg/kg
– | CC1=NN=C(C=Cc2ccccc2F)c2cc3c(cc2C1)OCO3 [Example 90, 1-[2'-(Fluoro)-styryl)-4-[methyl]-7,8-[methylenedioxy]-5H-2,3-benzodiazepine] | – | – | – | – | minimal effective dose (rats): 0.3 mg/kg
11 | COc1ccc(C=CC2=NN=C(C)Cc3cc(OC)c(OC)cc32)cc1Cl [Example 55] | – | – | – | – | –
16 | COc1ccc(C=CC2=NN=C(C)Cc3cc(OC)c(OC)cc32)cc1C [Example 14] | – | – | – | – | –
12 | COc1cc2c(cc1OC)C(C=Cc1ccccc1)=NN=C(C)C2 [Example 33] | – | – | – | – | –
5 | COc1cc2c(cc1OC)C(C=Cc1c[nH]c3ccccc13)=NN=C(C)C2 [Example 71] | – | – | – | – | –
16 | CCCc1cc(C=CC2=NN=C(C)Cc3cc(OC)c(OC)cc32)ccc1OC [Example 41] | – | – | – | – | –
17 | COc1cc2c(cc1OC)C(C=Cc1ccc([N+](=O)[O-])cc1)=NN=C(C)C2 [Example 12] | – | – | – | – | –
– | COc1cc2c(cc1OC)C(C=Cc1ccc(OC)c(C(C)C)c1)=NN=C(C)C2 [Example 40] | + + | + + | 0/5 | 4/5 | –
– | COc1cc2c(cc1OC)C(C=Cc1ccccc1Cl)=NN=C(C)C2 [Example 54] | + | + | 2/5 | 2/5 | –

Structure (SMILES) | Ki [1] [nM] | Behaviour ([2]; 300 mg/kg i.p.) | Behaviour ([2]; 1000 mg/kg p.o.) | acute toxicity (dead/treated animals) (mice; 300 mg/kg i.p.) | acute toxicity (dead/treated animals) (mice; 1000 mg/kg p.o.) | further results
CCC1C(C)=NN=C(C=Cc2cccc(Cl)c2)c2cc(OC)c(OC)cc21 (stereo not shown) [Example 48] | 19 | + | +- | 0/5 | 0/5 | –
COc1cc2c(cc1OC)C(C=Cc1ccc(Cl)c(N)c1)=NN=C(C)C2 [Example 77] | 10 | + + | + + | 0/5 | 0/5 | –
COc1cc(OC)c(C=CC2=NN=C(C)Cc3cc(OC)c(OC)cc32)c(OC)c1 [Example 58] | 19 | + | + + | 0/5 | 0/5 | –
COc1cc2c(cc1OC)C(C=Cc1ccc3c(c1)OCO3)=NN=C(C)C2 [Example 67] | 5 | +- | + | 0/6 | 0/6 | Catalepsy in mice Minimal effective dose [MED] (Catalepsy in mice): >100 mg/kg; Catalepsy in rats Minimal effective dose [MED] (Catalepsy in rats): >100 mg/kg
COc1cc2c(cc1OC)C(C=Cc1cccc(Cl)c1)=NN=C(C)C2 [Example 51] | 19 | + | + + | 0/6 | 0/6 | Catalepsy in mice Minimal effective dose [MED] (Catalepsy in mice): 100 mg/kg; Catalepsy in rats Minimal effective dose [MED] (Catalepsy in rats): >100 mg/kg
